pIC50: −log10 of the molar value. Where a SMILES comes first, the peptide text is derived from it.
Tests used:
[1] = tested on: N-end rule pathway ubiquitylation in reticulocyte lysate; assay: ECL ubiquitylation assay using Sulfo-TAG-labeled streptavidin and IPR plate coated with FK2 antibody; format: biochemical, rabbit; details: RGS4 plasmid; for fold reduction of the RGS4 ECL signal in the presence of dipeptide inhibitor: 1 mM dipeptide; for IPR readings, Experiment 1 / IPR readings, Experiment 2: 1 mM dipeptide inhibitor with 50 μM bestatin
Method: Binding Buffer 2 (BB2) refers to 25 mM Tris-HCl buffer pH 7.4 containing 100 mM NaCl, 0.05 mM Na3VO4, 0.004% TritonX-100, 2 mM DTT and protease inhibitors (protease inhibitor cocktail, EDTA free, Roche Applied Science). Proteins were produced by coupled transcription/translation using TnT reaction mixes (Promega Corp, WI). The TNT Quick coupled transcription-translation system (Promega) contains rabbit reticulocyte lysate pre-mixed with most of the reaction components necessary to carry out transcription and translation in vitro (TNT mix), including all the amino acids except methionine. Unless otherwise noted, biotin-labeled in vitro translated proteins were produced in reaction mixtures that contained 8–30 μg/ml of a selected plasmid encoding protein of interest, 5 μl of TNT T7 Quick reticulocyte lysate mix (Promega Corp, WI) or TnT SP6 Quick Coupled Transcription/Translation System (Promega Corp, WI), 20 μM methionine, 50 μM MG-132 (Calbiochem, proteasome inhibitor to inhibit degradation of ubiquitylated proteins by proteasome) and 20 μg/ml biotinylated Lys-tRNA (transcend tRNA, Promega). The reactions were allowed to proceed for 20–90 min at 30° C. The reactions were stopped by the addition of BB1 supplemented with 20 mM AMP-PNP (Sigma, a non-hydrolyzable ATP analog), 20 mM N-ethylmaleimide (Sigma, an irreversible inhibitor of deubiquitylating enzymes) or, alternatively, by the addition of BB2. BB1 was used in screens involving the ubiquitination pathway. BB2 was used for other assay formats. The produced proteins were used in the assays of interest with or without further purification.
Transcription-translation reaction mixtures were prepared as described in the Example 1 except that no labeled ubiquitin was added. Some reactions also contained 1 mM dipeptide inhibitor of the N-end rule pathway (either Arg-β-Ala, or Trp-Ala) together with 50 μM bestatin as indicated (Table 2). The reaction was allowed to proceed for 20 min at 30° C. Then 1 μl of the reaction was mixed with 50 μl of BB1 supplemented with 20 mM AMP-PNP, 20 mM N-ethylmaleimide, and 2 μg/ml Sulfo-TAG-labeled streptavidin in a well of an IPR plate coated with an anti-ubiquitin antibody (FK2 antibody, Affiniti). […] In a typical assay the presence of RGS4-encoding plasmid produced a 30–100 fold higher ECL signal compared to the empty vector (FIG. 2, Table 2). This signal was reduced 3–4 fold in the presence of Arg-β-Ala (a type 1 inhibitor of the N-end rule pathway), but not in the presence of Trp-Ala (a type 2 inhibitor of the N-end rule pathway) in agreement with the previous report that RGS4 is a type 1 N-end rule substrate in reticulocyte lysates (Davydov and Varshavsky, 2000, J. Biol. Chem., 275:22931–22941). In the same assay RGS4 produced 3–5 fold higher ECL signal compared to RGS4C2V, when the same amounts of the corresponding plasmids were added to the reaction mixtures (Table 2).

[2] = tested on: N-end rule pathway ubiquitylation in reticulocyte lysates; assay: ECL ubiquitylation assay of EST clone proteins, FK2 antibody coated IPR plate; format: biochemical, rabbit
Method: The following EST clones in bacteria were obtained: IMAGE ID #, 3446518, 3446518, 3446518, 3914731 (RGS4), 3914731 (RGS4), 3914731 (RGS4) (Incyte, Palo Alto). Bacteria containing EST clones were grown in 2 ml LB with 50 μg/ml Amp, and DNA was isolated using QIAprep Spin Miniprep Kit (Qiagen). DNA yield was 5–20 μg.
Proteins were prepared from the EST clones in transcription-translation reaction mixtures (total volume 12.5 uL) as described in the Materials and Methods except for the addition of 1 μM Ub aldehyde (Calbiochem). Then 1 μl of the reaction product was mixed with 50 μl of BB1 supplemented with 20 mM AMP-PNP, 20 mM N-ethylmaleimide and 2 μg/ml Sulfo-TAG-labeled streptavidin in to each well of an IPR plate coated with FK2 antibody.
As previously reported, RGS4 is a substrate of the N-end rule-dependent ubiquitylation in reticulocyte lysates (Davydov and Varshavsky, 2000, J. Biol. Chem., 275:22931–22941). To determine if the protein produced from clone 3446518 was similarly ubiquitylated through the N-end rule pathway, the ECL ubiquitylation assay was performed in the presence of dipeptide inhibitors Arg-β-Ala (type 1 inhibitor of the N-end rule pathway), or Trp-Ala (type 2 inhibitor of the same pathway). As was shown on FIG. 2, the RGS4 signal was reduced 3–4 fold in the presence of Arg-β-Ala (a type 1 inhibitor of the N-end rule pathway), but not in the presence of Trp-Ala (a type 2 inhibitor of the N-end rule pathway) in agreement with the previous report that RGS4 is a type 1 N-end rule substrate in reticulocyte lysates (Davydov and Varshavsky, 2000, J. Biol. Chem., 275:22931–22941). In contrast, the dipeptides had little effect on the assay signal from clone 3446518 (FIG. 2). Thus, a different pathway of the ubiquitin system mediates ubiquitylation of the protein produced from clone 3446518.

[3] = molecular target: T1, EphB4 (Mus musculus, UniProt P54761); assay: Kinase inhibitor profiling, autophosphorylation; format: biochemical
T1 construct: specificity data for proteins generated from a library of eighteen full-length clones; host or cells: rabbit reticulocyte lysate, TnT coupled in vitro transcription/translation (cell-free)
T1 sequence (P54761 16-987): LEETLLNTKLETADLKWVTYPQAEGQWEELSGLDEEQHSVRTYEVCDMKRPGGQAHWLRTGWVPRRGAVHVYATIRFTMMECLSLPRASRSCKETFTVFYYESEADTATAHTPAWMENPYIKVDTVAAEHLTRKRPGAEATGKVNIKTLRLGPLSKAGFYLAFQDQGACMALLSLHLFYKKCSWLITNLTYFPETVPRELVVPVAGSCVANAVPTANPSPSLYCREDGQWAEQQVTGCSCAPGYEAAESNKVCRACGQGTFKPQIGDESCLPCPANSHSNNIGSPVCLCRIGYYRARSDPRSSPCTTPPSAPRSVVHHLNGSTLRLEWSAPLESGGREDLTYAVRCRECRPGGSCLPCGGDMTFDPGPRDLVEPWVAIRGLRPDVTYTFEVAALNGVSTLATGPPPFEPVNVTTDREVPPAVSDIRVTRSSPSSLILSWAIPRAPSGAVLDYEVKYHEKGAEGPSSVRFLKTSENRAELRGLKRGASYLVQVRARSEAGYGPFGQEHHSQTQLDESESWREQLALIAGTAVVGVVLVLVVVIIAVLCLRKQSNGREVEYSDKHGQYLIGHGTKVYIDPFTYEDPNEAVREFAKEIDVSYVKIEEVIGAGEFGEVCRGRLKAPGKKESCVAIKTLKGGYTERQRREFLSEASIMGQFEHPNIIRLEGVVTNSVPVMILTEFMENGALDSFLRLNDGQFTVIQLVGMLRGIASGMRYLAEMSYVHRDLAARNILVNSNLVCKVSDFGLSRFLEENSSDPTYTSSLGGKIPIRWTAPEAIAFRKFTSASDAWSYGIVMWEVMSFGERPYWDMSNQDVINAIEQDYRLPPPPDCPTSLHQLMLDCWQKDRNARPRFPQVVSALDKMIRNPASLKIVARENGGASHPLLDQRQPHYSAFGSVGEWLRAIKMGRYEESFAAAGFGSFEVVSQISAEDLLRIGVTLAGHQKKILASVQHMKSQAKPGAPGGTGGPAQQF
Method: Proteins were produced from DNA plasmids of Mock Luciferase, Promega, tyrosine kinase clone Spleen Tyrosine kinase (SYK, IMAGE ID# 3870426) and Eph receptor-A7 (EphA7, IMAGE ID# 3991628) (Incyte Genomics, CA) and immobilized on streptavidin or avidin coated NPT-IPR plates as described in the Example 7. To promote autophosphorylation in these immobilized and purified proteins, Mn++ ions were added in a 50 μl reaction containing 5 mM MgCl2, 5 mM MnCl2, 100 μM ATP, 25 mM Tris-HCl buffer pH 7.4, 0.05 mM Na3VO4, 0.004% TritonX-100, 2 mM DTT and EDTA-free protease inhibitor (Roche Molecular Biochemicals). This mixture was incubated with shaking at room temperature overnight to allow autophosphorylation. Following this incubation, wells were washed 2 times with TT-buffer and 2 times with water. Following this step, 50 ng Sulfo-TAG labeled anti-phosphotyrosine in buffer containing 25 mM Tris-HCl buffer pH 7.4, 5 mM MgCl2, 0.05 mM Na3VO4, 0.004% TritonX-100, 2 mM DTT and 0.05% IgG in a final volume of 50 μl was added followed by incubation at room temperature for 45 min. The unbound reagents were removed by one time washing with water, and the TAG label was detected in presence of 150 μl IPR assay buffer (0.4 mM Gly—Gly buffer, pH 7.8, 1 mM EDTA, 0.1 M TPA). The ECL signals were measured using an imaging plate reader.
Proteins were produced using 100 ng of plasmid DNA Mock (Luciferase, Promega) or tyrosine kinases (Fert2 IMAGE ID # 4485050, FGFR1 IMAGE ID # 4037899, Fgfr2 IMAGE ID # 2654352, Src IMAGE ID # 3156400, BMX IMAGE ID # 3919253, LCK IMAGE ID # 4191610, Epha7 IMAGE ID # 3991628, Ephb4 IMAGE ID # 4013934, Tek IMAGE ID # 3482498, HCK IMAGE ID # 4778819, BTK IMAGE ID # 4478463, CSK IMAGE ID # 4398416, SYK IMAGE ID # 3870426, FGR IMAGE ID # 4419973, PTK2B IMAGE ID # 4339456, FRK(IMAGE ID # 4515877, Kit IMAGE ID # 2644960, Fgfr-4 IMAGE ID # 4239139, NTRK3 IMAGE ID # 4181574, Kdr IMAGE ID # 4238984, Incyte Genomics, CA) and immobilized on SA or avidin coated NPT-IPR plates as described in previous examples. The unbound components of the translation reaction (including any endogenous kinases) were removed by 3 washes with TT-buffer (25 mM Tris-HCl buffer pH 7.4 and 0.004% Triton), two five minutes washes with high-salt wash buffer (25 mM Tris-HCl buffer pH 7.4, 0.004% Triton, 1M NaCl and 5 mM DTT) and 3 washes with TT-buffer. […] The mixture was incubated at room temperature for 10 mm before starting the kinase reaction by adding 25 μl of 200 μM ATP in buffer A. This mixture was incubated with intermittent shaking at room temperature for 2 hours to overnight to allow (a) phosphorylation of the pEY substrate and (b) autophosphorylation of the immobilized kinases. Autophosphorylation and phosphorylation of the pEY was measured as described in Examples 7 and 8.
The ECL signal in control wells produced by tyrosine kinases was compared to the wells containing inhibitor compounds. The signal produced from Mock was negligible.

[4] = tested on: tyrosine kinases reported to be the target of each inhibitor; details: read-out: reported IC50 concentration (1× concentration); for the kinase reported to be the target of the inhibitor; cited from earlier work
[5] = clone 3446518 in the presence of dipeptide inhibitor
[6] = clone 3914731 (RGS4) in the presence of dipeptide inhibitor

| Compound | fold reduction of the RGS4 ECL signal in the presence of dipeptide inhibitor [1] | IPR readings, Experiment 1 [1] | IPR readings, Experiment 2 [1] | ECL readings, Experiment 1 [2, 5] | ECL readings, Experiment 2 [2, 5] | ECL readings, Experiment 3 [2, 5] | ECL readings, Experiment 1 [2, 6] | ECL readings, Experiment 2 [2, 6] | ECL readings, Experiment 3 [2, 6] | fold reduction of the RGS4 signal in the presence of dipeptide inhibitor ([2]; RGS4) | Inhibition specificity towards Autophosphorylation at 10X IC50, Ephb4 [3] | pIC50 [4] |
| --- | --- | --- | --- | --- | --- | --- | --- | --- | --- | --- | --- | --- |
| C[C@H](NC(=O)[C@@H](N)Cc1c[nH]c2ccccc12)C(=O)O [Trp-Ala] (H-Trp-Ala-OH) | not | 19196 | 19268 | 11249 | 11550 | 11464 | 41229 | 40401 | 38552 | – | – | – |
| N=C(N)NCCC[C@H](N)C(=O)NCCC(=O)O [Arg-β-Ala] | 3–4 fold | 6224 | 6184 | 10484 | 10829 | 9665 | 15074 | 15016 | 14555 | 3–4 fold | – | – |
| N#C/C(=C\c1ccc(O)c(O)c1)C(=O)c1ccc(O)c(O)c1 [AG-538] | – | – | – | – | – | – | – | – | – | – | L (low inhibition (“L”=between 50–75% of the activity remaining)) | 7.22 |

Reference: patent US7063946B2, “Methods, reagents, kits and apparatus for protein function analysis” (Meso Scale Technologies, LLC., priority 2001, dated 2006)
